Measured values from ChEMBL document CHEMBL4184289, “Design, synthesis and anticancer activities evaluation of novel 5H-dibenzo[b,e]azepine-6,11-dione derivatives containing 1,3,4-oxadiazole units” (Bioorg Med Chem Lett, 2018).
Activity calls are given as the source filed them. The rule behind the calls is not given here.

Tests used:
[1] = biological target: Poly [ADP-ribose] polymerase 1 (Homo sapiens, UniProt P09874); assay: Inhibition of recombinant human GST-tagged PARP1 expressed in Escherichia coli using damaged DNA as substrate after 30 mins in presence of NAD+ by resazurin dye based fluorescence assay
OVCAR-3 [2] = assay: Induction of apoptosis in human OVCAR3 cells assessed as downregulation of Bcl2 protein expression at 0.625 to 10 uM after 24 hrs by Western blot method; format: functional, cell-based
OVCAR-3 [3] = assay: Antiproliferative activity against human OVCAR3 cells after 24 hrs by MTT assay; format: functional, cell-based
[4] = Homo sapiens, OVCAR-3, 24 h, read-out: IC50

Chain of Poly [ADP-ribose] polymerase 1 (P09874 whole entry): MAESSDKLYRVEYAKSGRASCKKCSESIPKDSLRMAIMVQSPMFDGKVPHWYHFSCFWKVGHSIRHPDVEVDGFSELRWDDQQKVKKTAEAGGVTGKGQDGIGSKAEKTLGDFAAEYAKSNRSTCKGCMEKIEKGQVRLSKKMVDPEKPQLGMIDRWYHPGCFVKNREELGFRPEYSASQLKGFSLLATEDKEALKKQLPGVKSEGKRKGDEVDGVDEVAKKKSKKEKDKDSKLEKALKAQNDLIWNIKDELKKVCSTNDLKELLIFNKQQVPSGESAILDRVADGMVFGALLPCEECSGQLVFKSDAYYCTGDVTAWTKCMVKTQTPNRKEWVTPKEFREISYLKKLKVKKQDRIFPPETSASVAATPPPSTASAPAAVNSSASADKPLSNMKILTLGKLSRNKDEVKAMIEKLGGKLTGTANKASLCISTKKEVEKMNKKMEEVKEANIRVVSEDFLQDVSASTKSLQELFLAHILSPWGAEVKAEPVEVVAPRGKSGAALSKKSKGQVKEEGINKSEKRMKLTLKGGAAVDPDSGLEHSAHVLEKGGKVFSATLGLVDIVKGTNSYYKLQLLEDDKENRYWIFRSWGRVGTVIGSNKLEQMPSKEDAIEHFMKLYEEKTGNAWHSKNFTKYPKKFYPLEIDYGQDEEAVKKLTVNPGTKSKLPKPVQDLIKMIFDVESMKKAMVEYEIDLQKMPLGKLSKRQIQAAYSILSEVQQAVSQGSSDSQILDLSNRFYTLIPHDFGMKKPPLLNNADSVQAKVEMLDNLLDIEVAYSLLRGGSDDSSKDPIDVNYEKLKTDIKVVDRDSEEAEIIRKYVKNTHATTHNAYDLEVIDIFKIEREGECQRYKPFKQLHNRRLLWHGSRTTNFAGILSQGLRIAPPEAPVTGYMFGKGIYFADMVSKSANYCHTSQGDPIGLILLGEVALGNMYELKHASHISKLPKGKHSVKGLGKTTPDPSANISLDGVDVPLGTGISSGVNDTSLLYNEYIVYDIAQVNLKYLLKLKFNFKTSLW

SMILES	IC50 (OVCAR-3 [3]; [4]) [µM]	IC50 (OVCAR-3 [3]; ovcar-3)	IC50 ([1]; read-out: IC50) [µM]	Activity (OVCAR-3 [2])	IC50 [1]
O=c1[nH]c2c(-c3nnc(/C=C/c4ccccc4)o3)cccc2c(=O)c2ccccc12	12.1		0.4		
Cc1cc(-c2nnc(CNC(=O)c3ccccc3)o2)c2[nH]c(=O)c3ccccc3c(=O)c2c1	11.4		0.304		
Cc1cc(-c2nnc(COc3ccccc3)o2)c2[nH]c(=O)c3ccccc3c(=O)c2c1		Not Active			Not Active
O=C(NCc1nnc(-c2cccc3c(=O)c4ccccc4c(=O)[nH]c23)o1)c1ccccc1Cl	> 100		0.745		
COc1ccc(F)cc1/C=C/c1nnc(-c2cccc3c(=O)c4ccccc4c(=O)[nH]c23)o1	> 100		0.951		
COc1ccc(Cl)cc1/C=C/c1nnc(-c2cccc3c(=O)c4ccccc4c(=O)[nH]c23)o1	> 100		1.26		
COc1ccccc1/C=C/c1nnc(-c2cc(C)cc3c(=O)c4ccccc4c(=O)[nH]c23)o1	10.7		0.147		
COc1ccc(Cl)cc1/C=C/c1nnc(-c2cc(C)cc3c(=O)c4ccccc4c(=O)[nH]c23)o1	> 100		1.19		
Cc1cc(-c2nnc(/C=C/c3ccccc3)o2)c2[nH]c(=O)c3ccccc3c(=O)c2c1	17.7		0.446		
COc1ccc(F)cc1/C=C/c1nnc(-c2cc(C)cc3c(=O)c4ccccc4c(=O)[nH]c23)o1	> 100		1.05		
O=c1[nH]c2c(-c3nnc(-c4ccccc4Cl)o3)cccc2c(=O)c2ccccc12	> 100		1.1		
COc1ccc(Br)cc1/C=C/c1nnc(-c2cc(C)cc3c(=O)c4ccccc4c(=O)[nH]c23)o1		Not Active			Not Active
O=C(NCc1nnc(-c2cccc3c(=O)c4ccccc4c(=O)[nH]c23)o1)c1ccccc1	> 100		1.26		
COc1c(Br)cc(Br)cc1/C=C/c1nnc(-c2cc(C)cc3c(=O)c4ccccc4c(=O)[nH]c23)o1		Not Active	0.939		
O=c1[nH]c2c(-c3nnc(-c4ccccc4)o3)cccc2c(=O)c2ccccc12	> 100				Not Active
Cc1cc(-c2nnc(CNC(=O)c3ccccc3Cl)o2)c2[nH]c(=O)c3ccccc3c(=O)c2c1		Not Active			Not Active

The next lines start with results.

IC50 (OVCAR-3 [3]; [4]) [µM]	IC50 (OVCAR-3 [3]; ovcar-3)	SMILES	IC50 ([1]; read-out: IC50) [µM]	Activity (OVCAR-3 [2])	IC50 [1]
1.66		COc1ccc(Br)cc1/C=C/c1nnc(-c2cccc3c(=O)c4ccccc4c(=O)[nH]c23)o1	0.047	Active	
6.28		O=c1[nH]c2c(-c3nnc(COc4ccccc4)o3)cccc2c(=O)c2ccccc12	0.099		
4.19		Cc1cc(-c2nnc(-c3ccccc3Cl)o2)c2[nH]c(=O)c3ccccc3c(=O)c2c1	0.051		
1.4		COc1c(Br)cc(Br)cc1/C=C/c1nnc(-c2cccc3c(=O)c4ccccc4c(=O)[nH]c23)o1	0.025	Active	
8.99		COc1ccccc1/C=C/c1nnc(-c2cccc3c(=O)c4ccccc4c(=O)[nH]c23)o1	0.136		
3.31		CNCc1ccc(-c2[nH]c3cc(F)cc4c3c2CCNC4=O)cc1 [RUCAPARIB]			
10.1		Cc1cc(-c2nnc(-c3ccccc3)o2)c2[nH]c(=O)c3ccccc3c(=O)c2c1	0.277		
